Our source for the IC50 and solubility values is patent publication US6610729B1, “Hydroxamic acid derivatives and medicinal utilization thereof” (Mitsubishi Pharma Corporation, priority 1998, dated 2003).

By IC50 is commonly meant the midpoint of a concentration-inhibition curve. Low values mean inhibition by little substance, high ones a need for much substance. As usually defined, the solubility is the dissolved amount per volume that the medium holds.

The test system of data set [1] is release of TNF α from THP-1 cells. Kind of data set: Inhibitory activity of TNF α release from THP-1 cells (LPS, ELISA). Particulars: Homo sapiens, 3 hr, 37° C., TNF α by ELISA. It counts as cell-based. On the procedure: The inhibitory effect of each compound (compounds of Examples 1, 2, 3, 6, 35, 39 and 44) on the release of TNF α from THP-1 cells which are monocyte cultured cells [see Nature 370, 218-220 (1994)] was investigated.
The THP-1 cells were suspended to a concentration of 1×10 ^6 cells/ml in RPMI1640 medium supplemented with 10% fetal calf serum (FCS) and dispensed by 100 μl. A 2 μg/ml LPS was prepared with RPMI1640 medium supplemented with 10% FCS. Each compound (dissolved in dimethyl sulfoxide) was diluted 500-fold with the LPS solution.
The diluted solutions of these compounds were added to the dispensed cell suspensions by 100 μl and allowed for 3 hr to react under the conditions of 37° C., 5% CO2. After the completion of the reaction, the reaction mixture was centrifuged and the culture supernatant was collected. The TNF α amount was quantitatively measured by ELISA (enzyme-linked immunosorbent assay). The TNF α release inhibitory effect by each compound was calculated from the proportion of released TNF α amount of the compound addition group relative to that of the compound non-addition group.
On the technique in general: In an ELISA, binding on a coated surface is turned into a signal by an enzyme label.

The test system of data set [2] is release of TNF α from LPS treated human whole blood. Kind of data set: Inhibitory activity of TNF α release from LPS treated human whole blood (ELISA). Type of data set: cell-based. The conditions noted are these: LPS treated human whole blood diluted 4-fold, 24 hr, 37° C., TNF α by ELISA. The protocol: The inhibitory effect of each compound (compounds of Examples 2, 6, 7, 10, 11, 37, 147, 231 and 245) on the release of TNF α from LPS treated human whole blood [see: Lymphokine Res 8, 141-146 (1989)] was investigated.
Human whole blood was diluted 4-fold with RPMI1640 medium supplemented with 10% FCS. The diluted blood was dispensed to a 96 multi-well plate by 100 μl and equilibrated under the conditions of 37° C., 5% CO2. LPS (2 μg/ml) was prepared with RPMI1640 medium supplemented with 10% FCS and a culture broth prepared by dissolving each compound (dissolved in dimethyl sulfoxide) in the LPS solution was added by 100 μl/well (final concentrated of dimethyl sulfoxide 0.1%), which was followed by incubation for 24 hr (37° C., 5% CO2). After the incubation, the reaction mixture was centrifuged (1,500 rpm, 5 min). The culture supernatant (40 μl/well) was collected, and TNF α amount in the supernatant was quantitatively measured by ELISA. The TNF α release inhibitory effect by each compound was calculated from the proportion of release TNF α amount of the compound addition group relitive to that of the compound non-addition group.

Data set [3] in a line: Solubility in saline (0.9% aqueous sodium chloride solution) at 25° C. Type of data set: physicochemical. Particulars: saline or isotonic. On the procedure:
The solubility of the Example compounds of the present invention in saline (0.9% aqueous sodium chloride solution) at 25° C. was measured.

For the compound `CC(C)C[C@@H](C(=O)N[C@@H](Cc1ccccc1)C(=O)c1ccc(OCCN(C)C)cc1)C(CN1C(=O)c2ccccc2C1=O)C(=O)NO.Cl` (single isomer, unassigned) [Example 2, 3(R)-[1(S)-[4-(2-Dimethylaminoethoxy)benzoyl]-2-phenyl]ethylcarbamoyl-5-methyl-2(R or S)-phthalimidomethylhexanohydroxamic Acid Hydrochloride], the IC50 in data set [1] worked out at 200 nM; in data set [2] it was 650 nM. In data set [3], this compound yielded a solubility of more than 5 mg/mL.

As to `CC(C)C[C@@H](C(=O)N[C@@H](Cc1ccc(OS(=O)(=O)[O-])cc1)C(=O)c1ccco1)C(CN1C(=O)c2ccccc2C1=O)C(=O)NO.[Na+]` (single isomer, unassigned) [Example 6, Sodium Salt of 3(R)-[1(S)-(2-furyl)carbonyl-2-[4-(hydroxysulfonyloxy)phenyl]]ethylcarbamoyl-5-methyl-2(R or S)-phthalimidomethylhexanohydroxamic Acid], the IC50 in data set [1] amounted to 660 nM; in data set [2] it was 1390 nM. The same compound had a solubility in data set [3] of more than 20 mg/mL.
